Measurements taken from patent publication US10039781B2, “Pulse inhalation of nitric oxide for treating respiratory diseases” (Advanced Inhalation Therapies (AIT) Ltd., priority 2015, dated 2018).
Like-named read-outs stand apart in the source and are kept apart here.

Assays:
[1] = healthy humans, cited from earlier work
[2] = test system: S. maltophilia; details: 200 ppm gNO until substantially eradicated; cited from earlier work
[3] = cited from earlier work
[4] = test system: Pseudomonas aeruginosa pneumonia; details: 160 ppm gNO, intermittent 30 minute exposures, rat; cited from earlier work
[5] = test system: Enterobacter sp.; details: 200 ppm gNO until substantially eradicated; cited from earlier work
[6] = test system: microorganisms; experiment: In vitro exposure to 200 ppm gNO, average over all microorganisms of Table 1; type: cell-based; details: average of the 15 microorganisms
From the text: In vitro studies of the antimicrobial and antiviral effect of gNO have shown that the viability and vitality of viruses, bacteria and fungi decreases to a point of substantial eradication after the pathogen has been exposed to a certain amount of nitric oxide over a certain period of time. This amount, which can be referred to as the effective amount, can be estimated in terms of the concentration of NO in the gas mixture contacted with the pathogen, times the duration of the exposure. For example, the effective amount can be estimated in units of ppm-time-hour, or ppm-hour. Table 1 presents experimental data gathered for microorganisms exposed to 200 ppm gNO until the microorganisms are substantially eradicated*.

[7] = rats, cited from earlier work
[8] = test system: Klebsiella sp.#2; details: 200 ppm gNO until substantially eradicated; cited from earlier work
[9] = test system: chronic, non-healing wound; details: topical 200 ppm gNO, cited from earlier work
[10] = test system: MRSA; details: 200 ppm gNO until substantially eradicated; cited from earlier work
[11] = test system: Group B Streptococci; details: 200 ppm gNO until substantially eradicated; cited from earlier work
[12] = test system: Acinetobader sp.; details: 200 ppm gNO until substantially eradicated; cited from earlier work
[13] = test system: MRSA biofilm; details: 200 ppm gNO for eight hours (1,600 ppm hours); cited from earlier work
[14] = test system: Klebsiella sp. #1; details: 200 ppm gNO until substantially eradicated; cited from earlier work
[15] = rats, gNO concentrations below 200 ppm, 6 hours/day for 28 days; cited from earlier work
[16] = test system: E. coli; details: 200 ppm gNO until substantially eradicated; cited from earlier work
[17] = Prospective phase I open label safety study of inhaled 160 ppm gNO in healthy adults; type: in vivo, human; details: 160 ppm gNO for 30 minutes, five times a day
[18] = test system: Candida albicans; details: 200 ppm gNO until substantially eradicated; cited from earlier work
[19] = test system: Mycobacterium smegmatis; details: 200 ppm gNO until substantially eradicated; cited from earlier work
[20] = test system: S. aureus (Clinical); details: 200 ppm gNO until substantially eradicated; cited from earlier work
[21] = test system: bovine respiratory disease; details: intermittent 30 minute exposures of gNO, cattle; cited from earlier work
[22] = test system: five planktonic species of methicillin resistant S. aureous (MRSA); details: exposure to 1,600 ppm hours of gNO; cited from earlier work
[23] = test system: P. aeruginosa (ATCC); details: 200 ppm gNO until substantially eradicated; cited from earlier work
[24] = test system: Klebsiella sp. #3; details: 200 ppm gNO until substantially eradicated; cited from earlier work
[25] = test system: Serracia sp.; details: 200 ppm gNO until substantially eradicated; cited from earlier work
[26] = test system: S. aureus (ATCC); details: 200 ppm gNO until substantially eradicated; cited from earlier work
[27] = 400 ppm gNO, first day of exposure
[28] = 500 ppm gNO, first day of exposure
[29] = five consecutive days, healthy adults

In the case of `[N]=O` [gNO, nitric oxide], the “levels of MetHb” value ([1]; inhalation of gNO at 128 ppm for 3 hours) is given as greater than 5%, the “levels of MetHb” value ([1]; inhalation of gNO at 512 ppm for 55 minutes) is given as greater than 5% and the “Effective amount in ppm-hour” value [2] is given as 800 ppm-hour. The “half-life in the body” value ([3]; in vivo) was “less than 6 seconds”, the “radius of action from its site of origin” value ([3]; in vivo) was “approximately 200 microns” and the “nitrate excreted in the urine, share of the nitric oxide dose inhaled” value ([3]; predominant metabolite nitrate) was “more than 70%”. For the same molecule, the “pulmonary bioburden and leukocyte infiltration” value [4] was “effective to reduce the pulmonary bioburden and leukocyte infiltration”, the “Effective amount in ppm-hour” value [5] was 1200 ppm-hour and the “Effective amount in ppm-hour, Average” value [6] was 1013.33 ppm-hour. For the same molecule, the mortality ([7]; 300 ppm gNO, groups of 10 rats) was “Six of the animals treated with 300 ppm gNO died during the first 1-2 days”, the MetHb levels [7, 27] was 72.5 percents and the mortality [7, 27] was “all of the animals died”. For the same molecule, the MetHb levels [7, 28] was 67 percents, the mortality [7, 28] was “all of the animals died” and the “Effective amount in ppm-hour” value [8] was 1000 ppm-hour. For the same molecule, the wound size reduction ([9]; at one week) was 42%, the presence of biofilm ([9]; within the first three days of treatment) was “no longer visibly present” and the “Effective amount in ppm-hour” value [10] was 1000 ppm-hour. The “Effective amount in ppm-hour” value [11] was 400 ppm-hour, the “Effective amount in ppm-hour” value [12] was 1200 ppm-hour and the MRSA in biofilm [13] was “shown to reduce MRSA”. For the same molecule, the “Effective amount in ppm-hour” value [14] was 1200 ppm-hour, the mortality [15] was “No deaths occurred” and the “Effective amount in ppm-hour” value [16] was 1000 ppm-hour. For the same molecule, the “Forced expiratory volume in 1 sec (FEV1) percentage and other lung function parameters” value [17, 29] was “improved”, the adverse events [17, 29] was “neither significant adverse events nor adverse events attributable to gNO inhalation occurred” and the methemoglobin levels [17, 29] was 0.9%. The tolerability [17, 29] was “all individuals tolerated the gNO treatment courses well”, the “serum nitrites/nitrates, prothrombin, pro-inflammatory cytokine and chemokine levels” value ([17]; baseline versus day 5) was “did not differ between baseline and day 5” and the “Effective amount in ppm-hour” value [18] was 800 ppm-hour. The “Effective amount in ppm-hour” value [19] was 2000 ppm-hour, the “Effective amount in ppm-hour” value [20] was 800 ppm-hour and the “clinical symptoms of bovine respiratory disease” value [21] was “shown to decrease the clinical symptoms”. For the same molecule, the “population of MRSA planktonic strains” value [22] was “A reduction in the population of all five MRSA planktonic strains was observed”, the “Effective amount in ppm-hour” value [23] was 600 ppm-hour and the “Effective amount in ppm-hour” value [24] was 1200 ppm-hour. The “Effective amount in ppm-hour” value [25] was 1200 ppm-hour and the “Effective amount in ppm-hour” value [26] was 800 ppm-hour.
